Experimental data: patent US4064132A, “Aroyl-substituted phenylacetamide derivatives” (Janssen Pharmaceutica N.V., priority 1976, dated 1977)
Like-named read-outs stand apart in the source and are kept apart here.

Key:
[1] = system: acetic acid induced writhing; assay: HOAc (acetic acid) induced writhing test in rats; assay type: in vivo, female Wistar rats; details: for ED50: Rattus norvegicus, po; for Potency Ratio: writhing test, compound A vs compound B
Protocol: According to the acetic acid induced writhing test, female Wistar rats (body weight 100±5g) are fasted overnight and injected intraperitoneally with 0.5 ml of a 1% acetic acid solution. Rats with at least 10 writhes within the first 10 minutes following the acetic acid injection are selected and treated five minutes later with an oral dose of the compound under investigation or with the vehicle (control). The number of writhes, i.e. the backward extension of the hind limbs, are counted during a 15 minute experimental session 45 to 60 minutes after the oral treatment. A minimum of three rats are used for each dose level tested.

[2] = system: mycobacterium butyricum induced arthritis; assay: mycobacterium butyricum induced arthritis test in rats; assay type: in vivo, male Wistar rats; details: for minimal effective dose: Rattus norvegicus, po, 336 h, 14 consecutive days; for Potency Ratio: arthritis test, compound A vs compound B
Protocol: According to the mycobacterium butyricum induced arthritis test, male Wistar rats (body weight 235±15g) are injected intradermally in the tail base with 0.05 ml of an oily suspension of mycobacterium butyricum. The paws and the joint diameters of the hind limbs are measured the day of the injection and a fortnight later. Rats with established arthritis, i.e., significant increase in paw and joint diameters are used for drug testing. Groups of three individually caged animals receive the drug under investigation mixed with the powdered food at different concentrations during 14 consecutive days. After this treatment period, the diameters of the hind limbs are measured again and the effect of drug treatment is evaluated by comparing the final swelling degrees of treated animals with that occurring in untreated controls. The lowest effective dose is that dose whereby a significant decrease of the swelling is observed as compared to untreated control animals.

[3] = table 3, read-out: Writhing test in rats, ED50
[4] = drug in food, table 3, read-out: Mycobacterium butyricum test effective dose
[5] = all-or-none basis of less than 15 writhes per animal per session, table 1, read-out: Oral ED50 (lowest effective oral dose expressed as ED50)
[6] = mixed with the powdered food, significant decrease of swelling vs untreated controls, table 2, read-out: Lowest Effective Dose

## CCN(CC)CCOC(=O)C(C)c1ccc(C(=O)c2cccs2)cc1.Cl (centres unmarked) [p-(2-thenoyl) H H Me H O(CH2)2N(Et)2, 2-(diethylamino)ethyl p-(2-thenoyl)hydratropate hydrochloride]
[1]; [3]
  ED50: 0.04 mg/kg
[2]; [4]
  minimal effective dose: 2.5 mg/kg

## Cc1cc(C(C)C(=O)O)ccc1C(=O)c1cccs1 (centres unmarked) [p-(2-thenoyl) Me H Me H OH, 3-methyl-4-(2-thenoyl)hydratropic acid]
[1]; [3]
  ED50: 5 mg/kg
[2]; [4]
  minimal effective dose: 10 mg/kg

## CC(C(=O)O)c1ccc(C(=O)c2cccs2)cc1 (stereo not drawn) [A, p-(2-thenoyl)-α-methyl-phenylacetic acid]
[1]; [5]
  ED50: 0.08 mg/kg
[1]; oral
  times more active than compound B (writhing): 16 times
[1]; table 1
  Potency Ratio: 1
[2]
  antagonism of mycobacterium butyricum induced arthritis in rats (in words): powerful antagonist of mycobacterium butyricum induced arthritis in rats
[2]; [6]
  minimal effective dose: 0.63 mg/kg
[2]; table 2
  Potency Ratio: 1
[2]; drug in food, 14 days
  times more active than compound B (arthritis): at least 16 times

## CCC(C(=O)O)c1ccc(C(=O)c2cccs2)cc1 (centres unmarked) [p-(2-thenoyl) H H Et H OH, 2-[p-(2-thenoyl)phenyl]butyric acid]
[1]; [3]
  ED50: 0.63 mg/kg

## CC(C(=O)NC1=NCCS1)c1ccc(C(=O)c2cccs2)cc1 (centres unmarked) [p-(2-thenoyl) H H Me H drawing 31]
[1]; [3]
  ED50: 2.5 mg/kg
[2]; [4]
  minimal effective dose: 10 mg/kg

## COc1ccc(NC(=O)C(C)c2ccc(C(=O)c3cccs3)cc2)cc1 (centres unmarked) [p-(2-thenoyl) H H Me H drawing 30]
[1]; [3]
  ED50: 10 mg/kg
[2]; [4]
  minimal effective dose: < 10 mg/kg

## CC(C(=O)O)c1ccc(C(=O)c2ccc3ccccc3c2)cc1 (centres unmarked) [p-(2-naphtoyl) H H Me H OH, p-(2-naphthoyl)hydratropic acid]
[1]; [3]
  ED50: 1.25 mg/kg
[2]; [4]
  minimal effective dose: 10 mg/kg

## Cc1c(CC(=O)O)cccc1C(=O)c1cccs1 [m-(2-thenoyl) H Me H H OH, 2-[3-(2-thenoyl)-o-tolyl]acetic acid]
[1]; [3]
  ED50: 10 mg/kg
[2]; [4]
  minimal effective dose: 1.25 mg/kg

## CC(C(=O)O)c1cccc(C(=O)c2cccs2)c1 (centres unmarked) [m-(2-thenoyl) H H Me H OH, m-(2-thenoyl)hydratropic acid]
[1]; [3]
  ED50: 1.25 mg/kg

## CC(C(=O)O)c1ccc(C(=O)c2cccs2)c(Cl)c1 (centres unmarked) [p-(2-thenoyl) Cl H Me H OH, 3-chloro-4-(2-thenoyl)hydratropic acid]
[1]; [3]
  ED50: 1.25 mg/kg
[2]; [4]
  minimal effective dose: 1.25 mg/kg

## CC(C(=O)O)c1ccc(C(=O)c2cccnc2)cc1.Cl (centres unmarked) [p-(3-pyridylcarbonyl) H H Me H OH, p-(3-pyridylcarbonyl)hydratropic acid hydrochloride]
[1]; [3]
  ED50: 2.5 mg/kg
[2]; [4]
  minimal effective dose: 2.5 mg/kg

## CC(C(=O)O)c1ccc(C(=O)c2cccs2)cc1 (single isomer, unassigned; (+)) [p-(2-thenoyl) (+) H H Me H OH, (+)-p-(2-thenoyl)hydratropic acid]
[1]; oral, table 3
  Writhing test in rats; ED50: 0.31 mg/kg
[2]; [4]
  minimal effective dose: ≤ 2.5 mg/kg

## CC(C(=O)OCCCN(C)C)c1ccc(C(=O)c2cccs2)cc1.O=C(O)C(=O)O (centres unmarked) [p-(2-thenoyl) H H Me H O(CH2)3N(Me)2, 3-(dimethylamino)propylp-(2-thenoyl)hydratropate oxalate]
[1]; [3]
  ED50: 0.16 mg/kg
[2]; [4]
  minimal effective dose: 2.5 mg/kg

## CC(C(=O)O)c1ccc(C(=O)c2cccs2)cc1 (single isomer, unassigned; (-)) [p-(2-thenoyl) (-) H H Me H OH, (-)-p-(2-thenoyl)hydratropic acid]
[1]; oral, table 3
  Writhing test in rats; ED50: 5.0 mg/kg

## C=CCC(C(=O)O)c1ccc(C(=O)c2cccs2)cc1 (centres unmarked) [p-(2-thenoyl) H H allyl H OH, 2-[p-(2-thenoyl)phenyl]-4-pentenoic acid]
[1]; [3]
  ED50: 1.25 mg/kg
[2]; [4]
  minimal effective dose: 10 mg/kg

## CCCCCCCCOC(=O)C(C)c1ccc(C(=O)c2cccs2)cc1 (centres unmarked) [p-(2-thenoyl) H H Me H OOct, octyl p-(2-thenoyl)hydratropate]
[1]; [3]
  ED50: 0.63 mg/kg

## CC(C)(C(=O)O)c1ccc(C(=O)c2cccs2)cc1 [p-(2-thenoyl) H H Me Me OH, α-methyl-p-(2-thenoyl)hydratropic acid]
[1]; [3]
  ED50: 0.31 mg/kg
[2]; [4]
  minimal effective dose: < 10 mg/kg

## CC(C(=O)O)c1ccc(C(=O)c2ccccc2)cc1 (stereo not drawn) [B, p-benzoyl-α-methylphenylacetic acid, reference compound]
[1]; [5]
  ED50: 1.25 mg/kg
[1]; table 1
  Potency Ratio: 1/16
[2]; [6]
  minimal effective dose: 10 mg/kg
[2]; table 2
  Potency Ratio: 1/16

## CCOC(=O)C(C)c1ccc(C(=O)c2cccs2)cc1 (centres unmarked) [p-(2-thenoyl) H H Me H OEt, ethyl p-(2-thenoyl)hydratropate]
[1]; [3]
  ED50: 0.31 mg/kg

## CC(C(=O)O)c1ccc(C(=O)c2ccc(Cl)s2)cc1 (centres unmarked) [p-(5-chloro-2-thenoyl) H H Me H OH, p-(5-chloro-2-thenoyl)hydratropic acid]
[1]; [3]
  ED50: 0.63 mg/kg
[2]; [4]
  minimal effective dose: 5 mg/kg

## Cc1ccc(C(=O)c2ccc(C(C)C(=O)O)cc2)s1 (centres unmarked) [p-(5-Me-2-thenoyl) H H Me H OH, p-(5-methyl-2-thenoyl)hydratropic acid]
[1]; [3]
  ED50: 1.25 mg/kg
[2]; [4]
  minimal effective dose: 5 mg/kg

## CC(C(=O)OCCN(C)C)c1ccc(C(=O)c2cccs2)cc1.O=C(O)C(=O)O (centres unmarked) [p-(2-thenoyl) H H Me H O(CH2)2N(Me)2, 2-(dimethylamino)ethyl p-(2-thenoyl)hydratropate oxalate]
[1]; [3]
  ED50: 0.08 mg/kg
[2]; [4]
  minimal effective dose: 2.5 mg/kg

## CC(C(=O)NO)c1ccc(C(=O)c2cccs2)cc1 (centres unmarked) [p-(2-thenoyl) H H Me H NHOH, p-(2-thenoyl)hydratropohydroxamic acid]
[1]; [3]
  ED50: 1.25 mg/kg
